Data as given in ChEMBL document CHEMBL1143429, “One-pot synthesis and antibacterial activities of pyrazolo[4',3':5,6]pyrido[2,3-d]pyrimidine-dione derivatives” (2008).
Values after ≈ are worked out from the molar mass of the structure shown. Active and inactive are the calls of the source. No cut-off for these calls is given here.

Assays:
Type in all cases: functional
[1] = system: Bacillus pumilus; experiment: Antibacterial activity against Bacillus pumilus PTCC 1114 by microdilution method
[2] = system: Staphylococcus epidermidis; experiment: Antibacterial activity against Staphylococcus epidermidis ATCC 12228 by microdilution method
[3] = system: Streptococcus mutans; experiment: Antibacterial activity against Streptococcus mutans PTCC 1601 by microdilution method
[4] = system: Staphylococcus aureus; experiment: Antibacterial activity against Staphylococcus aureus ATCC 25923 by microdilution method
[5] = system: Micrococcus luteus; experiment: Antibacterial activity against Micrococcus luteus PTCC 1110 by microdilution method
[6] = system: Pseudomonas aeruginosa; experiment: Antibacterial activity against Pseudomonas aeruginosa ATCC 85327 by microdilution method
[7] = system: Escherichia coli; experiment: Antibacterial activity against Escherichia coli ATCC 25922 by microdilution method
[8] = system: Enterococcus faecalis; experiment: Antibacterial activity against Enterococcus faecalis ATCC 29737 by microdilution method
[9] = system: Bacillus subtilis; experiment: Antibacterial activity against Bacillus subtilis ATCC 465 by microdilution method

Molecule	MIC [1]	MIC [2]	MIC [3]	MIC [4]	MIC [5]	MIC [6]	MIC [7]	MIC [8]	MIC [9]	Activity [6]	Activity [7]	Activity [1]	Activity [2]	Activity [3]	Activity [4]	Activity [5]	Activity [8]	Activity [9]
O=c1[nH]c2c(c(=O)[nH]1)C(c1ccccc1)c1c(-c3ccccc3)nn(-c3ccccc3)c1N2 (configuration not stated)	< 2 µg/mL	2 µg/mL (≈ 4.61 µM)	< 2 µg/mL	2 µg/mL (≈ 4.61 µM)	< 2 µg/mL	2 µg/mL (≈ 4.61 µM)	< 2 µg/mL	2 µg/mL (≈ 4.61 µM)	2 µg/mL (≈ 4.61 µM)									
O=c1[nH]c(=S)[nH]c2c1C(c1ccccc1)c1c(-c3ccccc3)nn(-c3ccc([N+](=O)[O-])cc3)c1N2 (configuration not stated)	4 µg/mL (≈ 8.09 µM)	7 µg/mL (≈ 14.2 µM)	8 µg/mL (≈ 16.2 µM)	3 µg/mL (≈ 6.07 µM)	4 µg/mL (≈ 8.09 µM)	14 µg/mL (≈ 28.3 µM)	5 µg/mL (≈ 10.1 µM)	13 µg/mL (≈ 26.3 µM)	3 µg/mL (≈ 6.07 µM)									
O=c1[nH]c2c(c(=O)[nH]1)C(c1ccccc1)c1c(-c3ccccc3)nn(-c3ccc([N+](=O)[O-])cc3)c1N2 (configuration not stated)	4 µg/mL (≈ 8.36 µM)	18 µg/mL (≈ 37.6 µM)	< 2 µg/mL	4 µg/mL (≈ 8.36 µM)	2 µg/mL (≈ 4.18 µM)	20 µg/mL (≈ 41.8 µM)	4 µg/mL (≈ 8.36 µM)	4 µg/mL (≈ 8.36 µM)	6 µg/mL (≈ 12.5 µM)									
O=c1[nH]c2c(c(=O)[nH]1)C(c1cccc([N+](=O)[O-])c1)c1c(-c3ccccc3)nn(-c3ccc([N+](=O)[O-])cc3)c1N2 (configuration not stated)	4 µg/mL (≈ 7.64 µM)	26 µg/mL (≈ 49.7 µM)	< 2 µg/mL	2 µg/mL (≈ 3.82 µM)	2 µg/mL (≈ 3.82 µM)	30 µg/mL (≈ 57.3 µM)	6 µg/mL (≈ 11.5 µM)	2 µg/mL (≈ 3.82 µM)	6 µg/mL (≈ 11.5 µM)									
O=c1[nH]c(=S)[nH]c2c1C(c1ccc(Cl)cc1)c1c(-c3ccccc3)nn(-c3ccc([N+](=O)[O-])cc3)c1N2 (configuration not stated)	4 µg/mL (≈ 7.56 µM)	6 µg/mL (≈ 11.3 µM)	8 µg/mL (≈ 15.1 µM)	6 µg/mL (≈ 11.3 µM)	3 µg/mL (≈ 5.67 µM)	16 µg/mL (≈ 30.2 µM)	6 µg/mL (≈ 11.3 µM)	12 µg/mL (≈ 22.7 µM)	4 µg/mL (≈ 7.56 µM)									
CN(C)[C@@H]1C(O)=C(C(N)=O)C(=O)[C@@]2(O)C(O)=C3C(=O)c4c(O)cccc4[C@@](C)(O)[C@H]3C[C@@H]12 [TETRACYCLINE]	8 µg/mL (≈ 18 µM)	< 2 µg/mL	2 µg/mL (≈ 4.5 µM)	4 µg/mL (≈ 9 µM)	4 µg/mL (≈ 9 µM)			8 µg/mL (≈ 18 µM)	4 µg/mL (≈ 9 µM)	inactive	inactive							
O=c1[nH]c(=S)[nH]c2c1C(c1ccc([N+](=O)[O-])cc1)c1c(-c3ccccc3)nn(-c3ccc([N+](=O)[O-])cc3)c1N2 (configuration not stated)	4 µg/mL (≈ 7.41 µM)	8 µg/mL (≈ 14.8 µM)	8 µg/mL (≈ 14.8 µM)	6 µg/mL (≈ 11.1 µM)	4 µg/mL (≈ 7.41 µM)	14 µg/mL (≈ 25.9 µM)	6 µg/mL (≈ 11.1 µM)	10 µg/mL (≈ 18.5 µM)	4 µg/mL (≈ 7.41 µM)									
O=c1[nH]c2c(c(=O)[nH]1)C(c1ccc(Cl)cc1)c1c(-c3ccccc3)nn(-c3ccccc3)c1N2 (configuration not stated)	2 µg/mL (≈ 4.27 µM)	4 µg/mL (≈ 8.55 µM)	< 2 µg/mL	64 µg/mL (≈ 137 µM)	< 2 µg/mL	2 µg/mL (≈ 4.27 µM)	< 2 µg/mL	32 µg/mL (≈ 68.4 µM)	4 µg/mL (≈ 8.55 µM)									
O=c1[nH]c(=S)[nH]c2c1C(c1ccccc1)c1c(-c3ccccc3)nn(-c3ccccc3)c1N2 (configuration not stated)	4 µg/mL (≈ 8.9 µM)	4 µg/mL (≈ 8.9 µM)	< 2 µg/mL	8 µg/mL (≈ 17.8 µM)	8 µg/mL (≈ 17.8 µM)	32 µg/mL (≈ 71.2 µM)	4 µg/mL (≈ 8.9 µM)	4 µg/mL (≈ 8.9 µM)	4 µg/mL (≈ 8.9 µM)									
O=c1[nH]c2c(c(=O)[nH]1)C(c1cccc([N+](=O)[O-])c1)c1c(-c3ccccc3)nn(-c3ccccc3)c1N2 (configuration not stated)	2 µg/mL (≈ 4.18 µM)	2 µg/mL (≈ 4.18 µM)	< 2 µg/mL	2 µg/mL (≈ 4.18 µM)	2 µg/mL (≈ 4.18 µM)	2 µg/mL (≈ 4.18 µM)	< 2 µg/mL	2 µg/mL (≈ 4.18 µM)	2 µg/mL (≈ 4.18 µM)									
Cc1ccc(C2c3c(-c4ccccc4)nn(-c4ccc([N+](=O)[O-])cc4)c3Nc3[nH]c(=O)[nH]c(=O)c32)cc1 (configuration not stated)	6 µg/mL (≈ 12.2 µM)	24 µg/mL (≈ 48.7 µM)	< 2 µg/mL	2 µg/mL (≈ 4.06 µM)	2 µg/mL (≈ 4.06 µM)	28 µg/mL (≈ 56.9 µM)	4 µg/mL (≈ 8.12 µM)	2 µg/mL (≈ 4.06 µM)	6 µg/mL (≈ 12.2 µM)									
GENTAMICIN						8 µg/mL	4 µg/mL					inactive	inactive	inactive	inactive	inactive	inactive	inactive
O=c1[nH]c(=S)[nH]c2c1C(c1ccc(Cl)cc1)c1c(-c3ccccc3)nn(-c3ccccc3)c1N2 (configuration not stated)	4 µg/mL (≈ 8.26 µM)	8 µg/mL (≈ 16.5 µM)	8 µg/mL (≈ 16.5 µM)	4 µg/mL (≈ 8.26 µM)	4 µg/mL (≈ 8.26 µM)	16 µg/mL (≈ 33.1 µM)	4 µg/mL (≈ 8.26 µM)	16 µg/mL (≈ 33.1 µM)	4 µg/mL (≈ 8.26 µM)									
O=c1[nH]c2c(c(=O)[nH]1)C(c1ccc(Cl)cc1)c1c(-c3ccccc3)nn(-c3ccc([N+](=O)[O-])cc3)c1N2 (configuration not stated)	6 µg/mL (≈ 11.7 µM)	28 µg/mL (≈ 54.6 µM)	< 2 µg/mL	4 µg/mL (≈ 7.8 µM)	4 µg/mL (≈ 7.8 µM)	28 µg/mL (≈ 54.6 µM)	6 µg/mL (≈ 11.7 µM)	2 µg/mL (≈ 3.9 µM)	8 µg/mL (≈ 15.6 µM)									
O=c1[nH]c2c(c(=O)[nH]1)C(c1ccc(Br)cc1)c1c(-c3ccccc3)nn(-c3ccc([N+](=O)[O-])cc3)c1N2 (configuration not stated)	4 µg/mL (≈ 7.18 µM)	32 µg/mL (≈ 57.4 µM)	< 2 µg/mL	4 µg/mL (≈ 7.18 µM)	2 µg/mL (≈ 3.59 µM)	32 µg/mL (≈ 57.4 µM)	4 µg/mL (≈ 7.18 µM)	4 µg/mL (≈ 7.18 µM)	8 µg/mL (≈ 14.4 µM)									
O=c1[nH]c(=S)[nH]c2c1C(c1ccc([N+](=O)[O-])cc1)c1c(-c3ccccc3)nn(-c3ccccc3)c1N2 (configuration not stated)	4 µg/mL (≈ 8.09 µM)	8 µg/mL (≈ 16.2 µM)	6 µg/mL (≈ 12.1 µM)	4 µg/mL (≈ 8.09 µM)	3 µg/mL (≈ 6.07 µM)	12 µg/mL (≈ 24.3 µM)	6 µg/mL (≈ 12.1 µM)	14 µg/mL (≈ 28.3 µM)	4 µg/mL (≈ 8.09 µM)									
Cc1ccc(C2c3c(-c4ccccc4)nn(-c4ccccc4)c3Nc3[nH]c(=O)[nH]c(=O)c32)cc1 (configuration not stated)	2 µg/mL (≈ 4.47 µM)	2 µg/mL (≈ 4.47 µM)	< 2 µg/mL	2 µg/mL (≈ 4.47 µM)	< 2 µg/mL	2 µg/mL (≈ 4.47 µM)	< 2 µg/mL	2 µg/mL (≈ 4.47 µM)	2 µg/mL (≈ 4.47 µM)									
O=c1[nH]c2c(c(=O)[nH]1)C(c1ccc(Br)cc1)c1c(-c3ccccc3)nn(-c3ccccc3)c1N2 (configuration not stated)	2 µg/mL (≈ 3.9 µM)	2 µg/mL (≈ 3.9 µM)	< 2 µg/mL	58 µg/mL (≈ 113 µM)	2 µg/mL (≈ 3.9 µM)	2 µg/mL (≈ 3.9 µM)	< 2 µg/mL	30 µg/mL (≈ 58.6 µM)	2 µg/mL (≈ 3.9 µM)									
